The compounds below were run on MCH receptors (assay: MCH receptor activity class (method not given)). Details: class by percent of control at 10^-7 M or IC50.

Row | Structure (SMILES) | class
1 | CN(C)c1nc(N[C@H]2CC[C@@H](CNCc3ccc(N(C)CCC#N)cc3)CC2)nc2c1CCCC2 [compound 1444] | 3 (Class 3 The value of percent of control at 10^−7 M was more than 60% or the value of IC50 was more than 200 nM.)
2 | CN(C)c1nc(N[C@H]2CC[C@@H](CNCc3ccc(OCc4ccc(Br)cc4)cc3)CC2)nc2c1CCCC2 [compound 1445] | 3 (Class 3 The value of percent of control at 10^−7 M was more than 60% or the value of IC50 was more than 200 nM.)
3 | CCOc1c(Br)cc(Br)cc1CNC[C@H]1CC[C@@H](Nc2nc3c(c(N(C)C)n2)CCCC3)CC1 [compound 1446] | 3 (Class 3 The value of percent of control at 10^−7 M was more than 60% or the value of IC50 was more than 200 nM.)
4 | CN(C)c1cc(N[C@H]2CC[C@@H](NCCc3ccc(Br)cc3)CC2)nc2ccccc12 [compound 1447] | 3 (Class 3 The value of percent of control at 10^−7 M was more than 60% or the value of IC50 was more than 200 nM.)
5 | CN(C)c1cc(N[C@H]2CC[C@@H](NCCOc3ccccc3Cl)CC2)nc2ccccc12 [compound 1449] | 3 (Class 3 The value of percent of control at 10^−7 M was more than 60% or the value of IC50 was more than 200 nM.)
6 | Cc1c(C)c(C)c(CNC2CCC(Nc3cc(N(C)C)c4ccccc4n3)CC2)c(C)c1C (centres unmarked) [compound 1451] | 3 (Class 3 The value of percent of control at 10^−7 M was more than 60% or the value of IC50 was more than 200 nM.)
7 | CCOc1cccc(CN[C@H]2CC[C@@H](Nc3cc(N(C)C)c4ccccc4n3)CC2)c1 [compound 1452] | 3 (Class 3 The value of percent of control at 10^−7 M was more than 60% or the value of IC50 was more than 200 nM.)
8 | CN(C)c1cc(N[C@H]2CC[C@@H](NC[C@@H](COCc3ccccc3)OCc3ccccc3)CC2)nc2ccccc12 [compound 1453] | 3 (Class 3 The value of percent of control at 10^−7 M was more than 60% or the value of IC50 was more than 200 nM.)
9 | COc1cc2ccccc2cc1CN[C@H]1CC[C@@H](Nc2cc(N(C)C)c3ccccc3n2)CC1 [compound 1454] | 3 (Class 3 The value of percent of control at 10^−7 M was more than 60% or the value of IC50 was more than 200 nM.)
10 | CN(C)c1cc(N[C@H]2CC[C@@H](NCCN(CCC#N)c3ccccc3)CC2)nc2ccccc12 [compound 1455] | 2 (Class 2: The value of percent of control at 10^−7 M was from 40% to 60% or the value of IC′50 was from 50 nM to 200 nM.)
11 | Cc1ccc(S(=O)(=O)N[C@H](CN[C@H]2CC[C@@H](Nc3cc(N(C)C)c4ccccc4n3)CC2)Cc2ccccc2)cc1 [compound 1456] | 3 (Class 3 The value of percent of control at 10^−7 M was more than 60% or the value of IC50 was more than 200 nM.)
12 | CN(C)c1cc(NC2CCC(NCC3CCCCC3C(O)c3ccccc3)CC2)nc2ccccc12 (centres unmarked) [compound 1457] | 3 (Class 3 The value of percent of control at 10^−7 M was more than 60% or the value of IC50 was more than 200 nM.)
13 | COc1cc(CCN[C@H]2CC[C@@H](Nc3cc(N(C)C)c4ccccc4n3)CC2)cc(OC)c1 [compound 1458] | 3 (Class 3 The value of percent of control at 10^−7 M was more than 60% or the value of IC50 was more than 200 nM.)
14 | CN(C)c1cc(N[C@H]2CC[C@@H](NCCc3c(-c4ccccc4)[nH]c4ccccc34)CC2)nc2ccccc12 [compound 1459] | 2 (Class 2: The value of percent of control at 10^−7 M was from 40% to 60% or the value of IC′50 was from 50 nM to 200 nM.)
15 | CN(C)c1cc(N[C@H]2CC[C@@H](NCC(c3ccc(Cl)cc3)c3ccc(Cl)cc3)CC2)nc2ccccc12 [compound 1460] | 3 (Class 3 The value of percent of control at 10^−7 M was more than 60% or the value of IC50 was more than 200 nM.)
16 | C[C@H](CN[C@H]1CC[C@@H](Nc2cc(N(C)C)c3ccccc3n2)CC1)c1cccc(C(O)c2ccccc2)c1 (some centres unmarked) [compound 1461] | 3 (Class 3 The value of percent of control at 10^−7 M was more than 60% or the value of IC50 was more than 200 nM.)
17 | CN(C)c1cc(N[C@H]2CC[C@@H](NCC3CN(C(c4ccccc4)c4ccccc4)C3)CC2)nc2ccccc12 [compound 1462] | 1 (Class 1: The value of percent of control at 10^−7 M was less than 40% or the value of IC50 was less than 50 nM.)
